Laboratory results published in patent US20260042764A1, “COMPOSITIONS AND METHODS FOR INHIBITION OF KRAS” (TheRas, Inc., priority 2022, published 2026).

Target: T1, Avi-KRAS G12D (1-169) GppNHp/RAF1 RBD-3xFLAG (52-151) (Homo sapiens, UniProt P01116, G12D)
T1 construct: Avi-KRAS G12D (1-169)
Test: Raf1-KRAS G12D-GppNHP disruption HTRF assay (Biological Example 1)
Type: binding
Settings: KRAS G12D, GppNHp-loaded; Table 11
Method in brief: (§1)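 Percent activity versus DMSO (100%) was derived from HTRF signal after KRAS–RAF1 RBD protein mix was incubated 1 h at room temperature with shaking and detection reagents were added for a further 1 h.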

T1 sequence (P01116 1-169 isoform P01116-2 G12D): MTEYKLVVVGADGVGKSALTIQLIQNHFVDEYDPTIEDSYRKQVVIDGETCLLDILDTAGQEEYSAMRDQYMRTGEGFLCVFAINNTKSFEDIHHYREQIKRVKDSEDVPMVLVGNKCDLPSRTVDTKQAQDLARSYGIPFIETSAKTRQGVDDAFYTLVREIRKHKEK

Compound	IC50 [nM]
CN(c1nc(OC[C@@]23CCCN2C[C@H](F)C3)nc2c(F)c(-c3ccc(F)c4sc(N)c(C#N)c34)c(C(F)(F)F)cc12)C1CCOCC1 [Compound 264]	100 to 1000
C[C@@H]1C[C@H](O)CCN1c1nc(OC[C@@]23CCCN2C[C@H](F)C3)nc2c(F)c(-c3ccc(F)c4sc(N)c(C#N)c34)c(C(F)(F)F)cc12 [Compound 265]	100 to 1000
N#Cc1c(N)sc2c(F)ccc(-c3c(C(F)(F)F)cc4c(N5CCOCC(O)C5)nc(OC[C@@]56CCCN5C[C@H](F)C6)nc4c3F)c12 (stereo partly drawn) [Compound 266]	< 100
N#Cc1c(N)sc2c(F)ccc(-c3c(C(F)(F)F)cc4c(N5CCCC(O)CC5)nc(OC[C@@]56CCCN5C[C@H](F)C6)nc4c3F)c12 (stereo partly drawn) [Compound 267]	< 100
CC(C)(O)[C@H]1CCN1c1nc(OC[C@@]23CCCN2C[C@H](F)C3)nc2c(F)c(-c3ccc(F)c4sc(N)c(C#N)c34)c(C(F)(F)F)cc12 [Compound 269]	100 to 1000
COC[C@H]1CCN1c1nc(OC[C@@]23CCCN2C[C@H](F)C3)nc2c(F)c(-c3ccc(F)c4sc(N)c(C#N)c34)c(C(F)(F)F)cc12 [Compound 270]	100 to 1000

System: SW620 cells (KRAS G12V)
Test: Cell-based pERK HTRF assay in SW620 cell (Biological Example 4)
Settings: Homo sapiens, SW-620, SW620 (KRAS G12V) cells, pERK HTRF
Method in brief: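 In SW620 cells grown in RPMI with 10% FBS, a 4 h compound treatment (0.25% DMSO, 9-point curve from 1 μM) preceded lysis. Phospho-ERK levels were then read by time-resolved FRET at 615 nm emission.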

Compound	IC50 [nM]
CN(c1nc(OC[C@@]23CCCN2C[C@H](F)C3)nc2c(F)c(-c3ccc(F)c4sc(N)c(C#N)c34)c(C(F)(F)F)cc12)C1CCOCC1 [Compound 264]	100 to 1000
C[C@@H]1C[C@H](O)CCN1c1nc(OC[C@@]23CCCN2C[C@H](F)C3)nc2c(F)c(-c3ccc(F)c4sc(N)c(C#N)c34)c(C(F)(F)F)cc12 [Compound 265]	< 100
N#Cc1c(N)sc2c(F)ccc(-c3c(C(F)(F)F)cc4c(N5CCOCC(O)C5)nc(OC[C@@]56CCCN5C[C@H](F)C6)nc4c3F)c12 (stereo partly drawn) [Compound 266]	< 100
N#Cc1c(N)sc2c(F)ccc(-c3c(C(F)(F)F)cc4c(N5CCCC(O)CC5)nc(OC[C@@]56CCCN5C[C@H](F)C6)nc4c3F)c12 (stereo partly drawn) [Compound 267]	< 100
CC(C)(O)[C@H]1CCN1c1nc(OC[C@@]23CCCN2C[C@H](F)C3)nc2c(F)c(-c3ccc(F)c4sc(N)c(C#N)c34)c(C(F)(F)F)cc12 [Compound 269]	100 to 1000
COC[C@H]1CCN1c1nc(OC[C@@]23CCCN2C[C@H](F)C3)nc2c(F)c(-c3ccc(F)c4sc(N)c(C#N)c34)c(C(F)(F)F)cc12 [Compound 270]	100 to 1000

Target: T2, Avi-KRAS WT (1-169) GppNHp/RAF1 RBD-3xFLAG (52-151) (Homo sapiens, UniProt P01116)
T2 construct: Avi-KRAS WT (1-169)
Test: Raf1-KRAS WT-GppNHP disruption HTRF assay (Biological Example 1)
Type: binding
Settings: KRAS WT, GppNHp-loaded; Table 11
Method in brief: as §1

T2 sequence (P01116 1-169 isoform P01116-2): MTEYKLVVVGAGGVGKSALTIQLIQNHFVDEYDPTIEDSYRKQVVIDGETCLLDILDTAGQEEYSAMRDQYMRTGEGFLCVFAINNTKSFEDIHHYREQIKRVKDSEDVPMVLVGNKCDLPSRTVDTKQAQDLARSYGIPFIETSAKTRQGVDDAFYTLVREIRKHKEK

Compound	IC50 [nM]
CN(c1nc(OC[C@@]23CCCN2C[C@H](F)C3)nc2c(F)c(-c3ccc(F)c4sc(N)c(C#N)c34)c(C(F)(F)F)cc12)C1CCOCC1 [Compound 264]	100 to 1000
C[C@@H]1C[C@H](O)CCN1c1nc(OC[C@@]23CCCN2C[C@H](F)C3)nc2c(F)c(-c3ccc(F)c4sc(N)c(C#N)c34)c(C(F)(F)F)cc12 [Compound 265]	100 to 1000
N#Cc1c(N)sc2c(F)ccc(-c3c(C(F)(F)F)cc4c(N5CCOCC(O)C5)nc(OC[C@@]56CCCN5C[C@H](F)C6)nc4c3F)c12 (stereo partly drawn) [Compound 266]	< 100
N#Cc1c(N)sc2c(F)ccc(-c3c(C(F)(F)F)cc4c(N5CCCC(O)CC5)nc(OC[C@@]56CCCN5C[C@H](F)C6)nc4c3F)c12 (stereo partly drawn) [Compound 267]	100 to 1000
CC(C)(O)[C@H]1CCN1c1nc(OC[C@@]23CCCN2C[C@H](F)C3)nc2c(F)c(-c3ccc(F)c4sc(N)c(C#N)c34)c(C(F)(F)F)cc12 [Compound 269]	100 to 1000
COC[C@H]1CCN1c1nc(OC[C@@]23CCCN2C[C@H](F)C3)nc2c(F)c(-c3ccc(F)c4sc(N)c(C#N)c34)c(C(F)(F)F)cc12 [Compound 270]	100 to 1000

Target: T3, Avi-KRAS G12V (1-169) GppNHp/RAF1 RBD-3xFLAG (52-151) (Homo sapiens, UniProt P01116, G12V)
T3 construct: Avi-KRAS G12V (1-169)
Test: Raf1-KRAS G12V-GppNHP disruption HTRF assay (Biological Example 1)
Type: binding
Settings: KRAS G12V, GppNHp-loaded; Table 11
Method in brief: as §1

T3 sequence (P01116 1-169 isoform P01116-2 G12V): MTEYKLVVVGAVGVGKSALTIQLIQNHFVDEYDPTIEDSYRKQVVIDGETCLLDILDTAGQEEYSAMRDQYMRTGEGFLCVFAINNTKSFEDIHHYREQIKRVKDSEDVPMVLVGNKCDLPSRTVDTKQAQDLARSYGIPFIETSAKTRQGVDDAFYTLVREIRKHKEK

Compound	IC50 [nM]
CN(c1nc(OC[C@@]23CCCN2C[C@H](F)C3)nc2c(F)c(-c3ccc(F)c4sc(N)c(C#N)c34)c(C(F)(F)F)cc12)C1CCOCC1 [Compound 264]	1000 to 10000
C[C@@H]1C[C@H](O)CCN1c1nc(OC[C@@]23CCCN2C[C@H](F)C3)nc2c(F)c(-c3ccc(F)c4sc(N)c(C#N)c34)c(C(F)(F)F)cc12 [Compound 265]	100 to 1000
N#Cc1c(N)sc2c(F)ccc(-c3c(C(F)(F)F)cc4c(N5CCOCC(O)C5)nc(OC[C@@]56CCCN5C[C@H](F)C6)nc4c3F)c12 (stereo partly drawn) [Compound 266]	100 to 1000
N#Cc1c(N)sc2c(F)ccc(-c3c(C(F)(F)F)cc4c(N5CCCC(O)CC5)nc(OC[C@@]56CCCN5C[C@H](F)C6)nc4c3F)c12 (stereo partly drawn) [Compound 267]	100 to 1000
CC(C)(O)[C@H]1CCN1c1nc(OC[C@@]23CCCN2C[C@H](F)C3)nc2c(F)c(-c3ccc(F)c4sc(N)c(C#N)c34)c(C(F)(F)F)cc12 [Compound 269]	1000 to 10000
COC[C@H]1CCN1c1nc(OC[C@@]23CCCN2C[C@H](F)C3)nc2c(F)c(-c3ccc(F)c4sc(N)c(C#N)c34)c(C(F)(F)F)cc12 [Compound 270]	100 to 1000

Target: T4, Avi-KRAS G12R (1-169) GppNHp/RAF1 RBD-3xFLAG (52-151) (Homo sapiens, UniProt P01116, G12R)
T4 construct: Avi-KRAS G12R (1-169)
Test: Raf1-KRAS G12R-GppNHP disruption HTRF assay (Biological Example 1)
Type: binding
Settings: KRAS G12R, GppNHp-loaded; Table 11
Method in brief: as §1

T4 sequence (P01116 1-169 isoform P01116-2 G12R): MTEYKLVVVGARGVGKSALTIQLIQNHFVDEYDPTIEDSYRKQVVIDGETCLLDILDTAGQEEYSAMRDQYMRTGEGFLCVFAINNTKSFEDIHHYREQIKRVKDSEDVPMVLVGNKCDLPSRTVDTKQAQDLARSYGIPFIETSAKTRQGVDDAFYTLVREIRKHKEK

Compound	IC50 [nM]
CN(c1nc(OC[C@@]23CCCN2C[C@H](F)C3)nc2c(F)c(-c3ccc(F)c4sc(N)c(C#N)c34)c(C(F)(F)F)cc12)C1CCOCC1 [Compound 264]	100 to 1000
C[C@@H]1C[C@H](O)CCN1c1nc(OC[C@@]23CCCN2C[C@H](F)C3)nc2c(F)c(-c3ccc(F)c4sc(N)c(C#N)c34)c(C(F)(F)F)cc12 [Compound 265]	100 to 1000
N#Cc1c(N)sc2c(F)ccc(-c3c(C(F)(F)F)cc4c(N5CCOCC(O)C5)nc(OC[C@@]56CCCN5C[C@H](F)C6)nc4c3F)c12 (stereo partly drawn) [Compound 266]	< 100
N#Cc1c(N)sc2c(F)ccc(-c3c(C(F)(F)F)cc4c(N5CCCC(O)CC5)nc(OC[C@@]56CCCN5C[C@H](F)C6)nc4c3F)c12 (stereo partly drawn) [Compound 267]	< 100
CC(C)(O)[C@H]1CCN1c1nc(OC[C@@]23CCCN2C[C@H](F)C3)nc2c(F)c(-c3ccc(F)c4sc(N)c(C#N)c34)c(C(F)(F)F)cc12 [Compound 269]	100 to 1000
COC[C@H]1CCN1c1nc(OC[C@@]23CCCN2C[C@H](F)C3)nc2c(F)c(-c3ccc(F)c4sc(N)c(C#N)c34)c(C(F)(F)F)cc12 [Compound 270]	100 to 1000

System: GP2d cells (KRAS G12D)
Test: Cell-based pERK HTRF assay in GP2d cell (Biological Example 2)
Settings: GP2d, GP2d (KRAS G12D) cells, pERK HTRF
Method in brief: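 GP2d (KRAS G12D) cells were plated in DMEM/10% FBS and treated the next day for 60 min with compounds. Dosing used 9-point half-log series starting at 1 μM or 100 nM in 0.25% DMSO. Lysates were read by HTRF pERK (d2/Eu cryptate antibodies) after 4–24 h at room temperature, with excitation at 320 nm and emission at 615 nm.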

Compound	IC50 [nM]
CN(c1nc(OC[C@@]23CCCN2C[C@H](F)C3)nc2c(F)c(-c3ccc(F)c4sc(N)c(C#N)c34)c(C(F)(F)F)cc12)C1CCOCC1 [Compound 264]	< 100
C[C@@H]1C[C@H](O)CCN1c1nc(OC[C@@]23CCCN2C[C@H](F)C3)nc2c(F)c(-c3ccc(F)c4sc(N)c(C#N)c34)c(C(F)(F)F)cc12 [Compound 265]	< 100
N#Cc1c(N)sc2c(F)ccc(-c3c(C(F)(F)F)cc4c(N5CCOCC(O)C5)nc(OC[C@@]56CCCN5C[C@H](F)C6)nc4c3F)c12 (stereo partly drawn) [Compound 266]	< 100
N#Cc1c(N)sc2c(F)ccc(-c3c(C(F)(F)F)cc4c(N5CCCC(O)CC5)nc(OC[C@@]56CCCN5C[C@H](F)C6)nc4c3F)c12 (stereo partly drawn) [Compound 267]	< 100
CC(C)(O)[C@H]1CCN1c1nc(OC[C@@]23CCCN2C[C@H](F)C3)nc2c(F)c(-c3ccc(F)c4sc(N)c(C#N)c34)c(C(F)(F)F)cc12 [Compound 269]	< 100
COC[C@H]1CCN1c1nc(OC[C@@]23CCCN2C[C@H](F)C3)nc2c(F)c(-c3ccc(F)c4sc(N)c(C#N)c34)c(C(F)(F)F)cc12 [Compound 270]	100 to 1000
